This note sets out measurements from patent US20120276012A1, “Method of Treatment and Screening Method” (ISIS INNOVATION LIMITED, priority 2009, published 2012).

Substitutions are numbered along the chain they refer to.

The target of test [1] is T1, creatine transporter (CrT) (Homo sapiens, UniProt P48029).
T1 construct: expressed in transfected cells
T1 sequence (P48029 1-635): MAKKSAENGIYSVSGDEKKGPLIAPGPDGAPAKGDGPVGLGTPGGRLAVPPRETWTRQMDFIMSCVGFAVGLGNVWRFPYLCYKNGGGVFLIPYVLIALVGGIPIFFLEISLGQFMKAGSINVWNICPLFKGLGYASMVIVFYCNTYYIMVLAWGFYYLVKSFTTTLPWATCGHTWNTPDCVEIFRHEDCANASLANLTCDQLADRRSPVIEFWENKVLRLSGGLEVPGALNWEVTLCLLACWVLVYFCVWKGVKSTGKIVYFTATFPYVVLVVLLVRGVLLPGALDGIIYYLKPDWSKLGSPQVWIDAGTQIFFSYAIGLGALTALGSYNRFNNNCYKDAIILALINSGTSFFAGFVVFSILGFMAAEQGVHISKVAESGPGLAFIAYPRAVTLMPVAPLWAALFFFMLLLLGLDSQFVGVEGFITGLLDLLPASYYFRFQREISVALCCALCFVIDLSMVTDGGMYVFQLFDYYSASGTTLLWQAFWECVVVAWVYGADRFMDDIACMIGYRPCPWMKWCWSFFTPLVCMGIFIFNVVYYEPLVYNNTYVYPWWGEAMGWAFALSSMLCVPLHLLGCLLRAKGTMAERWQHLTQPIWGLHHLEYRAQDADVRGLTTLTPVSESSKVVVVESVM
Nature of the test: 14C-labelled creatine uptake in fibroblast 3T3 cells that stably express the CrT. Type of test: cell-based. As to conditions: 3T3 cells stably expressing CrT; increasing extracellular β-GPA concentration; 14C-creatine, 37° C. for 60 min; FIG. 5B.
Description: We have developed a sensitive and specific assay for measuring ^14C-labelled Cr uptake in cell culture using fibroblast 3T3 cells that stably express the CrT. Cells (1×10^5 cells) were plated into 24-well-plates, and incubated for 18 hours to form monolayers. […] After incubation at 37° C. for 60 min (95% air, 5% CO2), media was aspirated, cells solubilised and lysed using PBS/TritonX-100. A scintillation counter measures signal attributed to intracellular radiolabel, with Cr uptake estimated against known standards. Control wells contain no test compound to measure normal background uptake, and control wells containing only cells are used for protein quantification.

Test [2] addresses T2, creatine transporter (CrT) (Mus musculus, UniProt Q8VBW1).
T2 construct: these cells express endogenous CrT; endogenous in cells; host or cells: HL-1 cells (mouse atrial cardiomyocyte-like)
T2 sequence (Q8VBW1 1-635): T1 sequence (P48029 1-635) with A24V, P25S, V38A, T42A, G223T, A368T, V539I
Nature of the test: 14C-labelled creatine uptake in HL-1 cells expressing endogenous CrT. Type of test: cell-based. As to conditions: HL1 cells incubated with 250 μM creatine; increasing extracellular β-GPA concentration; FIG. 5B.
Description: Cells (1×10^5 cells) were plated into 24-well-plates, and incubated for 18 hours to form monolayers. Each well was spiked with 10 μl (37 kBq) ^14C-creatine, 500 μM of non-radiolabelled Cr, and 30 μM of test compound (β-guanidinopropionic acid) (performed in triplicate). After incubation at 37° C. for 60 min (95% air, 5% CO2), media was aspirated, cells solubilised and lysed using PBS/TritonX-100. A scintillation counter measures signal attributed to intracellular radiolabel, with Cr uptake estimated against known standards. Control wells contain no test compound to measure normal background uptake, and control wells containing only cells are used for protein quantification. […] HL-1 cells that are derived from mouse atrial tumour cells and have a beating cardiomyocyte-like phenotype. […] Changes in creatine uptake were measured using the ^14C screen described above.

As for `N=C(N)NCCC(=O)O` [β-GPA, β-guanidinopropionic acid], the creatine uptake result in test [1] and in test [2] was “dose-dependent inhibition of creatine uptake” each time.
